Data taken from US8999889B2, “Substituted ketonic isoxazoline compounds and derivatives for combating animal pests” (BASF SE, priority 2010, dated 2015).

Columns and labels:
Assay type in all cases: in vivo
Plutella xylostella = experiment: Diamond back moth (Plutella xylostella), dipped Chinese cabbage leaves; conditions: mortality recorded 24, 72, and 120 hours after treatment, read-out: mortality in comparison with untreated controls
Method: If not otherwise specified the test solutions were prepared as follow:
The active compound was dissolved at the desired concentration in a mixture of 1:1 (vol:vol) distilled water:acteon. The test solution was prepared at the day of use and in general at concentrations of ppm (wt/vol).
B.1 Diamond Back Moth (Plutella xylostella)
Leaves of Chinese cabbage were dipped in test solution and air-dried. Treated leaves were placed in petri dished lined with moist filter paper. Mortality was recorded 24, 72, and 120 hours after treatment.

Spodoptera eridania = experiment: Southern armyworm (Spodoptera eridania), sprayed lima bean plants; conditions: 96 h, Spodoptera eridania larvae, 4 days after treatment, read-out: mortality in comparison with untreated controls
Method: B.4 Southern Armyworm (Spodoptera eridania)
(§1) The active compounds were formulated in cyclohexanone as a 10,000 ppm solution supplied in tubes. The tubes were inserted into an automated electrostatic sprayer equipped with an atomizing nozzle and they served as stock solutions for which lower dilutions were made in 50% acetone:50% water (v/v). A nonionic surfactant (Kinetic®) was included in the solution at a volume of 0.01% (v/v).
(§2) Lima bean plants (variety Sieva) were grown 2 plants to a pot and selected for treatment at the 1st true leaf stage. Test solutions were sprayed onto the foliage by an automated electrostatic plant sprayer equipped with an atomizing spray nozzle. The plants were dried in the sprayer fume hood and then removed from the sprayer. Each pot was placed into perforated plastic bags with a zip closure. About 10 to 11 armyworm larvae were placed into the bag and the bags zipped closed. Test plants were maintained in a growth room at about 25° C. and about 20-40% relative humidity for 4 days, avoiding direct exposure to fluorescent light (24 hour photoperiod) to prevent trapping of heat inside the bags. Mortality and reduced feeding were assessed 4 days after treatment, compared to untreated control plants.

Ceratitis capitata = experiment: Mediterranean fruitfly (Ceratitis capitata), microtiter plate with insect diet and eggs; conditions: 120 h, egg and larval mortality after 5 days, read-out: mortality in comparison with untreated controls
Method: B.2 Mediterranean Fruitfly (Ceratitis capitata)
For evaluating control of Mediterranean fruitfly (Ceratitis capitata) the test unit consisted of microtiter plates containing an insect diet and 50-80 C. capitata eggs.
The compounds were formulated using a solution containing 75% v/v water and 25% v/v DMSO. Different concentrations of formulated compounds were sprayed onto the insect diet at 5 μl, using a custom built micro atomizer, at two replications. After application, microtiter plates were incubated at about 28±1° C. and about 80±5% relative humidity for 5 days. Egg and larval mortality was then visually assessed.

Heliothis virescens = experiment: Tobacco budworm (Heliothis virescens) I, sprayed cotton plants; conditions: 96 h, Heliothis virescens larvae, 4 days after treatment, read-out: mortality in comparison with untreated controls
Method: B.6 Tobacco Budworm (Heliothis virescens) I
as §1
as §2, with “Cotton” for “Lima bean”, “plants” for “plants (variety Sieva)”, “cotyledon” for “1st true leaf”, “budworm” for “armyworm”

Anthonomus grandis = experiment: Boll weevil (Anthonomus grandis), microtiter plate with insect diet and eggs; conditions: 120 h, egg and larval mortality after 5 days, read-out: mortality in comparison with untreated controls
Method: B.7 Boll Weevil (Anthonomus grandis)
For evaluating control of boll weevil (Anthonomus grandis) the test unit consisted of 24-well-microtiter plates containing an insect diet and 20-30 A. grandis eggs.
The compounds were formulated using a solution containing 75% v/v water and 25% v/v DMSO. Different concentrations of formulated compounds were sprayed onto the insect diet at 20 μl, using a custom built micro atomizer, at two replications.
After application, microtiter plates were incubated at about 23±1° C. and about 50±5% relative humidity for 5 days. Egg and larval mortality was then visually assessed.

Bemisia argentifolii = experiment: Silverleaf whitefly (Bemisia argentifolii), sprayed cotton plants; conditions: 72 h, Bemisia argentifolii adults, 3 days after treatment, read-out: mortality in comparison with untreated controls
Description: B.3 Silverleaf Whitefly (Bemisia argentifolii)
as §1
Cotton plants at the cotyledon stage (one plant per pot) were sprayed by an automated electrostatic plant sprayer equipped with an atomizing spray nozzle. The plants were dried in the sprayer fume hood and then removed from the sprayer. Each pot was placed into a plastic cup and about 10 to 12 whitefly adults (approximately 3-5 days old) were introduced. The insects were collected using an aspirator and a nontoxic Tygon® tubing connected to a barrier pipette tip. The tip, containing the collected insects, was then gently inserted into the soil containing the treated plant, allowing insects to crawl out of the tip to reach the foliage for feeding. Cups were covered with a reusable screened lid. […] Mortality was assessed 3 days after treatment, compared to untreated control plants.

Myzus persicae = experiment: Green peach aphid (Myzus persicae), artificial diet under membrane, systemic; conditions: 72 h, Myzus persicae adults, 3 days, read-out: mortality in comparison with untreated controls
Description: B.8 Green Peach Aphid (Myzus Persicae)
For evaluating control of green peach aphid (Myzus persicae) through systemic means the test unit consisted of 96-well-microtiter plates containing liquid artificial diet under an artificial membrane.
The compounds were formulated using a solution containing 75% v/v water and 25% v/v DMSO. Different concentrations of formulated compounds were pipetted into the aphid diet, using a custom built pipetter, at two replications.
After application, 5-8 adult aphids were placed on the artificial membrane inside the microtiter plate wells. The aphids were then allowed to suck on the treated aphid diet and incubated at about 23±1° C. and about 50±5% relative humidity for 3 days. Aphid mortality and fecundity was then visually assessed.

Megoura viciae = experiment: Vetch aphid (Megoura viciae), broad bean leaf disks in microtiter plates; conditions: foliar, 120 h, Megoura viciae adults, 5 days, read-out: mortality in comparison with untreated controls
Method: B.5 Vetch aphid (Megoura viciae)
For evaluating control of vetch aphid (Megoura viciae) through contact or systemic means the test unit consisted of 24-well-microtiter plates containing broad bean leaf disks.
The compounds were formulated using a solution containing 75% v/v water and 25% v/v DMSO. Different concentrations of formulated compounds were sprayed onto the leaf disks at 2.5 μl, using a custom built micro atomizer, at two replications. After application, the leaf disks were air-dried and 5-8 adult aphids placed on the leaf disks inside the microtiter plate wells. The aphids were then allowed to suck on the treated leaf disks and incubated at about 23±1° C. and about 50±5% relative humidity for 5 days. Aphid mortality and fecundity was then visually assessed.

CC(=O)c1ccc(C2=NOC(c3cc(Cl)cc(Cl)c3)(C(F)(F)F)C2)cc1C (stereo not drawn) [Compound 1-1, 1-{4-[5-(3,5-Dichloro-phenyl)-5-trifluoromethyl-4,5-dihydro-isoxazol-3-yl]-2-methyl-phenyl}-ethanone]
≥ 75%: mortality at 300 ppm (Plutella xylostella) | mortality at 300 ppm (Spodoptera eridania) | mortality at 2500 ppm (Ceratitis capitata) | mortality at 2500 ppm (Heliothis virescens) | mortality at 2500 ppm (Anthonomus grandis) | mortality at 300 ppm (Bemisia argentifolii) | mortality at 2500 ppm (Myzus persicae) | mortality at 2500 ppm (Megoura viciae)

Cc1cc(C2=NOC(c3cc(Cl)cc(Cl)c3)(C(F)(F)F)C2)ccc1C(=O)CC(C)C (stereo not drawn) [Compound 1-2, 1-{4-[5-(3,5-Dichloro-phenyl)-5-trifluoromethyl-4,5-dihydro-isoxazol-3-yl]-2-methyl-phenyl}-3-methyl-butan-1-one]
≥ 75%: mortality at 300 ppm (Plutella xylostella) | mortality at 300 ppm (Spodoptera eridania) | mortality at 2500 ppm (Ceratitis capitata) | mortality at 2500 ppm (Heliothis virescens) | mortality at 300 ppm (Bemisia argentifolii) | mortality at 2500 ppm (Myzus persicae) | mortality at 2500 ppm (Megoura viciae)
